Where a chain is given by its changes, count along the chain named. Entries after “also recorded” stand apart in the source; their conditions may differ. Blank lines part the entries; values can stand above or below the molecule they belong to.
How the values were obtained:
[1] = molecular target: T1, hS1P4 (Homo sapiens, UniProt O95977); assay: Tango β-arrestin recruitment assay, Tango-hS1P4-CHO; type: cell-based; conditions: final concentration 45 µM, 9 serial dilutions at 5-fold intervals; 20 h drug treatment; luciferase readout
T1 construct: expressed in transfected cells; host or cells: CHO-K1
T1 sequence (O95977 1-384): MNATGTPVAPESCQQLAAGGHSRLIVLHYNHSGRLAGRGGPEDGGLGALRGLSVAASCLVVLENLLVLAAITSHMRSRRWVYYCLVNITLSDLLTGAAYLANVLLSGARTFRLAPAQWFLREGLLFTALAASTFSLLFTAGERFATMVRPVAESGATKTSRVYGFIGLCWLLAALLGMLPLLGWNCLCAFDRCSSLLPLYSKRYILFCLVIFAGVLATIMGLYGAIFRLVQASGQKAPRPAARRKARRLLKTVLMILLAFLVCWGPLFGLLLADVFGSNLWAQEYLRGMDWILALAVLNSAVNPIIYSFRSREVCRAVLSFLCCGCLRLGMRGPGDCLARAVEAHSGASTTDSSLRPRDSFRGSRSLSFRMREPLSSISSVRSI
Excerpt: (§1) The Tango assay detects ligand-dependent GPCR activity through the interaction between β-arrestin and GPCRs. […] The NTEV fragment and the tetracycline transactivator (tTA), an artificial transcription factor, are fused at the C-terminus of the GPCR, while the CTEV fragment is fused to human β-arrestin 2. To enhance the stability of the interaction between GPCR and β-arrestin, a short sequence from the C-terminus of the human arginine vasopressin receptor 2 (V2 tail) is inserted between the GPCR and NTEV. The V2 tail contains multiple GRK phosphorylation sites, which strengthen β-arrestin binding upon phosphorylation. The CTEV fragment carries the stabile point mutation S219P and is truncated at residue 221 to remove the autoinhibitory C-terminal tail. Meanwhile, β-arrestin 2 is truncated to lack the entire C-terminal tail (residues 383-410 deleted). This truncation confers robust stimulus-dependent receptor desensitization, thereby improving detection sensitivity compared with wild-type β-arrestin 2. The UAS reporter construct consists of upstream activating sequence (UAS) elements, a minimal CMV promoter, and a tTA-dependent luciferase reporter gene. Therefore, constructing Tango cells requires the co-transfection of the above three plasmids into host cells. Upon GPCR activation and β-arrestin recruitment, the TEV enzyme at the β-arrestin terminus cleaves tTA from the GPCR C-terminus. The released tTA initiates tTA-dependent luciferase transcription, and compound activity is ultimately determined by measuring luminescence intensity.
(§2) • 1) Tango cell line from was digested from the culture dish respectively. After cell counting, the cells were plated at a density of 10,000 cells per well with […] into a white opaque 96-well plate (add 60 µL D'Hanks to the surrounding wells), and incubated overnight (20 h) in a 5% CO2 incubator at 37°C. The cell density will reach approximately 90% the next day. • 2) After 20 h, 30 µL of serially diluted compound solution was added to each well. The control group was supplemented with 30 µL F12K complete medium. Each group had three replicate wells. • 3) Samples were collected after 20 h of drug treatment.
(§3) (All compounds were tested at a final concentration of 45 µM, with 9 serial dilutions at 5-fold intervals. 1 µM BAF-312 was used as the positive control for S1PR1, and 25 µM BAF-312 was used as the positive control for S1PR4.)
(§4) ^a β-arrestin recruitment activity based on Tango-S1PR1-CHO-K1 and Tango-S1PR4-CHO-K1 cells, expressed as mean EC50 values ± SD. ^b FLIPR assays were performed using S1PR2-CHO and S1PR5-CHO cell lines, expressed as mean EC50 values ± SD. ^c β-arrestin recruitment activity based on PathHunter CHO-K1-S1PR3 cells, expressed as mean EC50 values ± SD. Data are the mean of at least two independent determinations, reported as mean ± SD (standard deviation).

[2] = molecular target: T2, hS1P4-R-79C (Homo sapiens, UniProt O95977, R79C); assay: Tango β-arrestin recruitment assay, Tango-hS1P4-R-79C-CHO; type: cell-based; conditions: final concentration 45 µM, 9 serial dilutions at 5-fold intervals; 20 h drug treatment; luciferase readout
T2 construct: expressed in transfected cells; host or cells: CHO
T2 sequence (O95977 1-384 R79C): T1 sequence (O95977 1-384) with R79C
Excerpt: as §1, §2, §3

[3] = molecular target: T3, hS1P1 (Homo sapiens, UniProt P21453); assay: Tango β-arrestin recruitment assay, Tango-hS1P1-CHO; type: cell-based; conditions: final concentration 45 µM, 9 serial dilutions at 5-fold intervals; 20 h drug treatment; luciferase readout
T3 construct: expressed in transfected cells; host or cells: CHO-K1
T3 sequence (P21453 whole entry): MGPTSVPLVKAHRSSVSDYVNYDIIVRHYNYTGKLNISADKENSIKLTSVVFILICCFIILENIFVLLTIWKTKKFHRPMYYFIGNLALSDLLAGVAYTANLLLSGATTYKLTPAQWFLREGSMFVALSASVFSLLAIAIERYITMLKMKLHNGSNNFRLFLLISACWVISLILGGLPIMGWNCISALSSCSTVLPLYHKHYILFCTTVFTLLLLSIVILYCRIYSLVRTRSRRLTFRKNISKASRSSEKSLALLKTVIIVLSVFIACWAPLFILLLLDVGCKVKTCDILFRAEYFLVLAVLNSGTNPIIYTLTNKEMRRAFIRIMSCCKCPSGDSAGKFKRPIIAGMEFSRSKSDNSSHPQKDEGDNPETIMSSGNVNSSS
Excerpt: as §1, §2, §3, §4

[4] = molecular target: T4, S1PR4 (Homo sapiens, UniProt O95977); assay: S1PR4 internalization function test in S1PR4-293T cells; type: cell-based; conditions: 1 µM, 37 °C, 1.5 hours; detected immediately, or at 5 hours or 20 hours after treatment
T4 construct: expressed in transfected cells; host or cells: 293T
T4 sequence (O95977 1-384): T1 sequence (O95977 1-384)
Protocol: Therefore, the recovery degree of S1PR4 after internalization caused by Compound 30 was evaluated, and the recovery effect following receptor internalization caused by Compound 30 was assessed in cells with high S1PR4 expression.

[5] = tested on: S1PR4-R82C/NDUFA10-R217W double-mutant mice; assay: In vivo efficacy in S1PR4-R82C/NDUFA10-R217W double-mutant muscular dystrophy mice; conditions: 1 mg/kg intragastric once daily
Protocol: Experimental Animals: A total of 34 S1PR4-R82C/NDUFA10-R217W mice were divided into 6 groups as shown below.
Intragastric administration was initiated on Day 0, and body weight was measured daily during the experiment to adjust the drug dosage. Grip strength was measured at the beginning and end of the experiment to observe motor changes in mice. Changes in the limb grip strength, serum creatine kinase content, and muscle fibrosis/inflammation in mice were detected as indicators for evaluating drug efficacy.
(§5) The mouse was placed horizontally on the grip test board. The mouse's tail was held and pulled gently in the opposite direction without using excessive force. The tail was gradually pulled until the mouse released the grip force sensor. The maximum value recorded by the grip force sensor is the grip strength. The test was repeated for 3 times and the average value was taken.
(§6) After the completion of administration, blood was collected via the orbital sinus, allowed to stand for 30 minutes, centrifuged at 3000 rpm at 4°C for 15 minutes, and serum was extracted, stored frozen at -20°C, and detected in accordance with the kit instructions.
(§7) After the experiment, the tibialis anterior, extensor digitorum longus, and diaphragm of the mice were harvested, fixed, sectioned, and subjected to HE staining and Sirius Red staining to observe the degree of muscle fibrosis. The slice was subjected to immunofluorescence staining with F4/80 to observe the level of muscle inflammation.

[6] = tested on: Duchenne muscular dystrophy model mice; assay: In vivo pharmacodynamic test in Duchenne muscular dystrophy model mice (Compound 30); conditions: 1 mg/kg intragastric once daily
Protocol: Experimental Animals: A total of 35 Duchenne muscular dystrophy model mice were divided into 6 groups as shown below.
Intragastric administration was initiated from Day 0. Body weight was measured daily during the experiment to adjust the drug dosage. Grip strength tests were performed every 2 days to observe changes in the mice's grip strength until the experiment concluded on Day 21. Changes in the limb grip strength, serum creatine kinase content, and muscle fibrosis/inflammation in the mice were detected as indicators for evaluating drug efficacy.
as §5, §6, §7

[7] = tested on: Duchenne muscular dystrophy model mice; assay: In vivo efficacy in Duchenne muscular dystrophy mdx mice (Compound 67); conditions: for rotarod time: Day 42; for rotarod time / grip strength: compared with the model group; for grip strength: after 42 days of treatment
Protocol: Experimental animals: A total of 18 Duchenne muscular dystrophy model mice were divided into 3 groups with 6 mice in each group.
Intragastric administration was initiated on Day 0. Body weight was measured daily during the period to adjust the drug dosage. Grip strength and rotarod tests were performed on Day 20 and Day 42. Changes in the limb grip strength, exercise duration, and muscle fibrosis/inflammation in mice were detected as indicators for evaluating drug efficacy.
as §5
The rotarod test was conducted on Day 0, Day 20, and Day 42 respectively. The test was performed at an accelerating speed (0-16 rpm), reaching the maximum speed after 300 seconds, with a maximum test duration of 600 seconds. The time until the animal fell off was recorded^7.
After the experiment, the tibialis anterior, extensor digitorum longus, and diaphragm of the mice were harvested, fixed, sectioned, and subjected to HE staining and Sirius Red staining to observe the degree of muscle fibrosis.

[8] = tested on: LPS-induced sepsis model; assay: LPS-induced sepsis myopathy (skeletal muscle atrophy) model; type: in vivo, mice; conditions: 14 days of LPS treatment
Excerpt: Animal models of sepsis can be established by injecting exogenous toxins into animals. In this study, a sepsis model was established via intraperitoneal injection of lipopolysaccharide to observe the effects of compounds on the occurrence and development of acquired weakness. This is a widely used method for modeling sepsis.
A skeletal muscle atrophy model induced by lipopolysaccharide can simulate clinical muscle atrophy caused by sepsis.
Mice were given a single intraperitoneal injection of LPS (1 mg/kg), followed by 14 consecutive days of intraperitoneal injection of either vehicle (1% DMSO dissolved in physiological saline) or Compound 30. Body weight was measured daily. After 14 days of LPS treatment, the mice were anesthetized, and the gastrocnemius and tibialis anterior muscles were harvested.

[9] = 20 mg/kg intragastric once daily
[10] = 3 mg/kg intragastric once daily

SMILES: C/C(=N\OCc1ccc(C2CCCCC2)c(C(F)(F)F)c1)c1ccc(CNCCC(=O)O)cc1 [Compound 10, (E)-3-((4-((1-((4-cyclohexyl-3-(trifluoromethyl)benzyl)oxy)imino)ethyl)benzyl)amino)propanoic acid]
EC50 [1]: 0.262 ± 0.0373 µM
EC50 [2]: 0.16 ± 0.0049 µM

SMILES: C/C(=N\OCc1ccc(C2CCCCC2)c(C(F)(F)F)c1)c1ccc(CN2CC(C(=O)O)C2)c(C(F)(F)F)c1 [Compound 19]
EC50 [3]: 0.00863 ± 0.00039 µM
EC50 [1]: 0.564 ± 0.184 µM
EC50 [2]: 0.121 ± 0.0304 µM

SMILES: C[C@@H]1C[C@H]2[C@@H]3CCC4=CC(=O)C=C[C@]4(C)C3=CC[C@]2(C)[C@@]1(O)C(=O)CO [Vamorolone, reference compound]
collagen deposition (collagen area ratio) [7, 9]: significantly reduced collagen deposition
macrophage levels (F4/80 macrophage marker, muscle inflammation) [7, 9]: significantly reduced macrophage levels
number of centrally nucleated fibers (HE staining) [7, 9]: significantly reduced
serum creatine kinase level [7, 9]: significantly reduced the creatine kinase level
rotarod time [7, 9]: increased
grip strength [7, 9]: increased significantly; also recorded: marked increase; also recorded: significantly elevated

SMILES: CCc1cc(/C(C)=N/OCc2ccc(-c3cnc(F)cn3)c(C)c2)ccc1CN1CC[C@H](C(=O)O)C1 [Compound 67, (S, E)-1-(2-ethyl-4-(1-(((4-(5-fluoropyrazin-2-yl)-3-methylbenzyl)oxy)imino)ethyl)benzyl)pyrrolidine-3-carboxylic acid]
S1PR4 internalization (expression of S1PR4 receptor on the cell surface) [4]: sustained internalization capacity
atrophy of the tibialis anterior muscle ([8]; high dose (Compound 30: 10mg/kg intraperitoneal once daily)): significantly inhibited
atrophy of the tibialis anterior muscle ([8]; medium dose (Compound 30: 1mg/kg intraperitoneal once daily)): significantly inhibited
collagen deposition (collagen area ratio) [7, 10]: significantly reduced collagen deposition
macrophage levels (F4/80 macrophage marker, muscle inflammation) [7, 10]: significantly reduced macrophage levels
number of centrally nucleated fibers (HE staining) [7, 10]: significantly reduced
serum creatine kinase level [7, 10]: significantly reduced the creatine kinase level
rotarod time [7, 10]: increased
grip strength [7, 10]: marked increase; also recorded: significantly elevated
grip strength ([7]; 3 mg/kg intragastric once daily, listed as compound 67): increased significantly

Further lines, with some results ahead:

EC50 [3]: 0.00221 ± 0.00058 µM
EC50 [2]: 0.0956 ± 0.0421 µM
SMILES: CCc1cc(/C(C)=N/OCc2ccc(C3CCCC3)c(C(F)(F)F)c2)ccc1CN1CC(C(=O)O)C1 [Compound 17]

EC50 [3]: 0.00104 µM
EC50 [2]: 0.157 µM
S1PR4 internalization (expression of S1PR4 receptor on the cell surface) [4]: cannot induce S1PR4 internalization
SMILES: CCc1cc(/C(C)=N/OCc2ccc(C3CCCCC3)c(C(F)(F)F)c2)ccc1CN1CC(C(=O)O)C1 [BAF312, reference compound]
collagen deposition (collagen area ratio) ([5]; after administration): significantly reduced collagen deposition
serum creatine kinase level ([5]; after treatment): significantly reduced
body weight gain trend ([5]; compared with the model group): no difference
collagen deposition (collagen area ratio) [6]: no difference
macrophage content (F4/80 immunofluorescence, muscle inflammation) [6]: no improvement
number of centrally nucleated fibers (HE staining) [6]: significantly reduced
serum creatine kinase level ([6]; after treatment): no such effect
body weight growth trend ([6]; compared with the model group): no difference

EC50 [2]: 0.11 ± 0.00685 µM
SMILES: CCc1cc(/C(C)=N/OCc2ccc(-c3ccccc3)c(C)c2)ccc1CNCCCC(=O)O [Compound 32, (E)-4-((2-ethyl-4-(1-((2-methyl-[1,1'-biphenyl]-4-yl)methoxy)imino)ethyl)benzyl)aminobutyric acid]

S1PR4 internalization (expression of S1PR4 receptor on the cell surface) [4]: can induce S1PR4 internalization
SMILES: CCCCCCCCCCCCC/C=C/[C@@H](O)[C@@H](N)COP(=O)(O)O [Compound S1P, sphingosine 1-phosphate, reference compound]

EC50 [3]: 0.00295 ± 0.00069 µM
EC50 [1]: 0.266 ± 0.0628 µM
EC50 [2]: 0.0631 ± 0.0218 µM
SMILES: C/C(=N\OCc1ccc(C2CCCCC2)c(C(F)(F)F)c1)c1ccc(CN2CC(C(=O)O)C2)c(C)c1 [Compound 18]
